Earlier results, collected in patent US11390612B2, “Polymorphic forms of Afatinib free base and Afatinib dimaleate” (FRESENIUS KABI ONCOLOGY LIMITED, priority 2015, dated 2022).

Settings: as observed in WO 2013/052157

polymorphic conversion after absorbing moisture (after absorbing moisture): converts to form E of Afatinib dimaleate
hygroscopicity: hygroscopic in nature
SMILES: CN(C)C/C=C/C(=O)Nc1cc2c(Nc3ccc(F)c(Cl)c3)ncnc2cc1O[C@H]1CCOC1.O=C(O)/C=C\C(=O)O.O=C(O)/C=C\C(=O)O [form A of Afatinib dimaleate]
